Measurements taken from patent publication US20070203153A1, “Compositions and methods for treating thrombocytopenia” (Astellas Pharma Inc., priority 2005, published 2007).
pEC50: −log10 of the molar value.

Tests used:
[1] = target: T1, human receptor (c-Mpl)-expressing Ba/F3 cells (Homo sapiens, UniProt P40238); experiment: proliferation of human c-Mpl-expressing Ba/F3 cells (c-Mpl-Ba/F3 cells); type: cell-based; settings: read-out: proliferation in a c-Mpl-dependent manner, EC50
T1 construct: expressed in transfected cells; host or cells: Ba/F3 cells
T1 sequence (P40238 26-635): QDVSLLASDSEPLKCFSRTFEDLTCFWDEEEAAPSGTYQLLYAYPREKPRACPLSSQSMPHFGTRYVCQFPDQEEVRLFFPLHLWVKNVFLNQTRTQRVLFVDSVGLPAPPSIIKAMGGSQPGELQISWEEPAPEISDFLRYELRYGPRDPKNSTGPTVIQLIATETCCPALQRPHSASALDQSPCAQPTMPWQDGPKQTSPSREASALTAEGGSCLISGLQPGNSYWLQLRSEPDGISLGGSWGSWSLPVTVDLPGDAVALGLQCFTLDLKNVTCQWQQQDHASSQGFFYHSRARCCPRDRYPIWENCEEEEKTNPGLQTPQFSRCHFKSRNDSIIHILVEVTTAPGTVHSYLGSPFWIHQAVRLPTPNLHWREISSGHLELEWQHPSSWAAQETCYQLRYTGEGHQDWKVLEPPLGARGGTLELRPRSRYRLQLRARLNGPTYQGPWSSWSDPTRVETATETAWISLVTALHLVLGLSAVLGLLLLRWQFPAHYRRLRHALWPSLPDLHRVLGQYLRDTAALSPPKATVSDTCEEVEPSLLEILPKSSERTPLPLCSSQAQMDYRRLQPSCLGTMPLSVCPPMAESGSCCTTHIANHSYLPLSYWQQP
Source text: Thrombopoietin (TPO) is a 332 amino acid cytokine that is the principal physiologic regulator of platelet production. Using a high-throughput growth assay based on the proliferation of human receptor (c-Mpl)-expressing Ba/F3 cells (c-Mpl-Ba/F3 cells), the screening of a library led to the identification of a novel series of c-Mpl agonists.

Ba/F3 cell = Ba/F3 cell growth (c-Mpl dependence control); type: cell-based; settings: Ba/F3 cells without c-Mpl
[2] = system: human cord blood CD34+ cells; experiment: megakaryocyte colony formation of human cord blood CD34+ cells; type: cell-based; settings: read-out: induction of megakaryocyte colony formation, EC50
[3] = system: G-CSF-mobilized human peripheral blood CD34+ cells; experiment: degree of polyploidy of G-CSF-mobilized human peripheral blood CD34+ cells after 12 days incubation; type: cell-based; settings: compared with rhTPO-treated cells
human platelets [4] = experiment: activation of signaling pathways in platelets (anti-phospho-STAT5 immunoblot), human; type: cell-based
chimpanzee platelets = experiment: activation of signaling pathways in platelets (anti-phospho-STAT5 immunoblot), chimpanzee; type: cell-based
[5] = system: Platelets of other species; experiment: signaling responses in platelets of other species (anti-phospho-STAT5 immunoblot); type: cell-based; settings: baboon, rhesus, cynomolgus, squirrel monkey, marmoset, beagle dog, guinea pig, rabbit, hamster, rat, mouse platelets
human c-Mpl = target: T2, human c-Mpl (Homo sapiens, UniProt P40238); experiment: effect on TPO binding to human c-Mpl using human platelets; settings: concentrations up to 100 microM
T2 construct: endogenous in cells; host or cells: human platelets
T2 sequence (P40238 26-635): T1 sequence (P40238 26-635)

[6] = system: G-CSF-mobilized human peripheral blood CD34+ cells; experiment: differentiation of human CD34+ cells into megakaryocytes, serum-free liquid culture, flow cytometry; type: cell-based; settings: day 14
Method: G-SCF-mobilized human peripheral blood CD34+ cells were cultured with a combination of FORMULA X and TPO, FORMULA X, or rhTPO in a serum-free liquid culture system. The numbers of CD34+CD41− cells (hematopoietic progenitor cells), CD34+CD41+ cells (megakaryocytic progenitor cells), and CD34−CD41+ cells (megakaryocytes) were measured using flow cytometry.
For purposes of this study, the number of megakaryocytes (CD34−CD41+ cells) depicted in FIG. 1 were counted using flow cytometry. The data represents the mean±SE of 5 independent experiments. *: p<0.05, ***p<0.001 compared with 3 nM TPO using Dunnett's test.
The number of hematopoietic progenitor cells ([…]) and megakaryocytic progenitor cells (CD34+CD41+ cells: b) depicted in FIGS. 2 and 3, respectively, were counted using flow cytometry, then compared with 3 nM TPO using Dunnett's test.
On the indicated days, the numbers of hematopoietic progenitor cells ([…]), megakaryocytic progenitor cells (CD34+CD41+ cells: b), and megakaryocytes (CD34−CD41+ cells: c) depicted in FIGS. 4, 5, and 6 were counted using flow cytometry on indicated days. The data represent the mean±SE of 5 independent experiments. *: p<0.05, **p<0.01, ***p<0.001 compared with 3 nM TPO using Dunnett's tests.

human platelets [7] = experiment: platelet-increasing effect in human platelet-producing NOD/SCID mice; type: in vivo; settings: for increase in the human platelet count: day 14
Source text: Non-obese diabetic/severe combined immunodeficiency (NOD/SCID) mice were characterized as an efficient engraftment model for human hematopoietic stem cells, as this model results in the production of human platelets. In this way, we examined the in vivo platelet-increasing effect of FORMULA X in human platelet-producing NOD/SCID mice in which human hematopoietic stem cells were transplanted.
In this study, we used commercially available cryopreserved human fetal liver CD34+ cells as a source of human hematopoietic stem cells. The cells were transplanted into sublethally irradiated (240 cGy) NOD/SCID mice. Human platelets started to appear in peripheral blood of these mice 4 weeks after transplantation. The production of human platelets continued up to six months post-transplant. […]

murine platelets = experiment: murine platelet count in human platelet-producing NOD/SCID mice; type: in vivo; settings: during the study period
Method: In this study, we used commercially available cryopreserved human fetal liver CD34+ cells as a source of human hematopoietic stem cells. The cells were transplanted into sublethally irradiated (240 cGy) NOD/SCID mice. Human platelets started to appear in peripheral blood of these mice 4 weeks after transplantation. The production of human platelets continued up to six months post-transplant. Various doses of FORMULA X (0, 0.3, and 3 mg/kg/day) were orally administered for 14 days to NOD/SCID mice that had been confirmed to produce human platelets stably.
The increase in the human platelet count reached about 2.7-fold at 1 mg/kg/day and about 3.0-fold at 3 mg/kg/day on day 14.

| pEC50 [1] | pEC50 [2] | influence on rhTPO binding to human c-Mpl (human c-Mpl) | Molecule | effect on Ba/F3 cell growth (Ba/F3 cell) | ploidy level of cells [3] | activation of signaling pathways in platelets (human platelets [4]) | activation of signaling pathways in platelets (chimpanzee platelets) | signaling responses in platelets (anti-phospho-STAT5 immunoblot) [5] | number of megakaryocytes (CD34-CD41+ cells) ([6]; agent alone (FIG. 1)) | number of megakaryocytes (CD34-CD41+ cells) ([6]; in the presence of 3 nM TPO (FIG. 1)) | increase in the human platelet count (human platelets [7]; 1 mg/kg/day oral) | increase in the human platelet count (human platelets [7]; 3 mg/kg/day oral) | human platelet count after withdrawal of administration (human platelets [7]; after withdrawal) | number of human platelets (human platelets [7]; oral administration for 14 days, significance at 1 mg/kg/day and above) | number of murine platelets (murine platelets) |
| --- | --- | --- | --- | --- | --- | --- | --- | --- | --- | --- | --- | --- | --- | --- | --- |
| 8.48 | 7.60 | did not influence | O=C(Nc1nc(-c2cc(Cl)cs2)c(N2CCN(C3CCCCC3)CC2)s1)c1cnc(N2CCC(C(=O)O)CC2)c(Cl)c1 [FORMULA X] | no effect | not different from that of cells treated with rhTPO | occurred only in human and chimpanzee platelets | occurred only in human and chimpanzee platelets | no signaling responses | increased the number of megakaryocytes in a dose-dependent fashion | dose-dependently increased | about 2.7 fold | about 3.0 fold | return to the pretreatment level | dose-dependently increased | did not change |
|  |  |  | TPO: 332 amino acid cytokine that is the principal physiologic regulator of platelet production |  |  |  |  | showed signaling responses | increased the number of megakaryocytes in a dose-dependent fashion |  |  |  |  |  |  |
